According to patent US20230181564A1, “Potent Tetrahydroquinolone Eliminates Apicomplexan Parasites” (The University of Chicago, priority 2020, published 2023):

Key:
[1] = tested on: T. gondii EGS strain bradyzoites; experiment: In vitro challenge assay for EGS strain bradyzoites in HFF; assay type: cell-based, Toxoplasma gondii; details: 500 nM
Experimental: PBS Sol/Toxicity pH7.4 refers to solubility of the compound in Phosphate Buffered Saline (PBS) at pH7.4. […] Tachy/Brady IC50 was determined in studies in which cultures of parasites in HFF were treated with varying concentrations of the compound and there was 50% inhibition of the replication (number) of parasites. Parasites were RH-YFP expressing tachyzoites (Tachy) and EGS (Brady) strains. Studies of effects of inhibitors on HFF or on T.gondii tachyzoites were performed with triplicate wells in at least two biological replicate experiments. Studies of effects on bradyzoites were performed at least twice in at least two biological replicate experiments. Compounds with much less inhibition of mammalian than T. gondii cytochrome bc in the saffarine enzyme assay (indicated by **) provide potential to further develop compounds, if unanticipated toxicity occurs from JAG21. […]
Cells were fixed using 4% paraformaldehyde and stained with Fluorescein-labeled Dolichos Biflorus Agglutinin, DAPI, and BAG1. […] Effects of compounds were quantitated by counting cysts in controls and treated cultures. Dolichos staining delimited structures and single organisms that remained were counted in a representative field of view. This was then multiplied by a factor determined by the total area of the cover slip in order to estimate the number of cysts and organisms in each condition. […]

[2] = molecular target: T1, P. falciparum bc1 complex cytochrome c reductase (Pfbc1) (Plasmodium falciparum, UniProt Q02768); experiment: Pfbc1 native assay (cytochrome c reduction by parasite extract); assay type: biochemical; details: atovaquone 1 μM positive control, mean±S.D., N=4
T1 construct: Parasite extract was then prepared by disruption with a sonicating probe; endogenous in cells; host or cells: P. falciparum 3D7 blood-stage parasites freed by saponin, sonicated extract
T1 sequence (Q02768 1-376): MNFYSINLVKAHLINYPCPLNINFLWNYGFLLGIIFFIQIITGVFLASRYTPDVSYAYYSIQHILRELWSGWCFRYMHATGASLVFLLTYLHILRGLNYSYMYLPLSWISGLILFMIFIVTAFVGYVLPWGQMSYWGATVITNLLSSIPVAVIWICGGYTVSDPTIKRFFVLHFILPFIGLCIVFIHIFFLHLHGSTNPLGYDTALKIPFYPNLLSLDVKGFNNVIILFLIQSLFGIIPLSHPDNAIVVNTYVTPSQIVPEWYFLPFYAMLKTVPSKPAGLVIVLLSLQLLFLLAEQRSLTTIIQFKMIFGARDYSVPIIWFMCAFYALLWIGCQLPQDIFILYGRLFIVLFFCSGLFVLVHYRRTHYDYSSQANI
Experimental: Enzyme assays. P. falciparum 3D7 strain were obtained from the Liverpool School of Tropical Medicine. Protease cocktail inhibitor was obtained from Roche. Bradford protein assay dye reagent was obtained from Bio-Rad. All other reagents were obtained from Sigma-Aldrich. Decylubiquinol was produced as per Fisher et al. (2009). In brief, 25 mg of decylubiquinone were dissolved in 400 μl of nitrogen-saturated hexane. An equal volume of aqueous 1 M sodium dithionite was added, and the mixture vortexed until colorless. […] Concentrations of decylubiquinol was determined spectrophotometrically on a Cary 300 Bio UV/visible spectrophotometer (Varian, UK) from absolute spectra, using ε288-320=8.1 mM-1·cm^−1. […]
The protocol for the preparation of parasite extract was adapted from Fisher et al. Free parasites were prepared from infected erythrocytes pooled from five T75 flasks, by adding 5 volumes of 0.15% (w/v) saponin in phosphate-buffered saline (137 mM NaCl, 2.7 mM KCl, 1.76 mM K2HPO4, 8.0 mM Na2HPO4, 5.5 mM D-glucose, pH 7.4) for 5 min, followed by three washes by centrifugation in RPMI containing HEPES (25 mM), and a final resuspension in potassium phosphate buffer (50 mM K2HPO4, 50 mM KH2PO4, 2 mM EDTA, pH7.4) containing a protease inhibitor cocktail (Complete Mini; Roche). […] The protein concentration of the parasite extract was determined by Bradford protein assay (Bio-Rad). […]

Cc1[nH]c2c(c(=O)c1-c1ccc(Oc3ccc(OC(F)(F)F)cc3)cc1)CCCC2 [JAG021, 2-methyl-3-(4-(4-(trifluoromethoxy)phenoxy)phenyl)-5,6,7,8-tetrahydroquinolin-4-one]
EGS bradyzoites in treated cultures [1]: not seen
inhibition at 1 µM [2]: 86.4 ± 3.2%
